{"source": "patent US6482799B1", "about": "“Self-preserving multipurpose ophthalmic solutions incorporating a polypeptide antimicrobial” (The Regents of the University of California, priority 1999, dated 2002)", "key": {"[1]": {"assay": "Toxicity study, intravaginal administration", "method": "The objective of this study was to determine if the treatment regimen proposed for the efficacy study of the defensin formulations caused target organ toxicity. This study is not intended to support application for research or marketing permits for products regulated by governmental agencies. The purpose of this study is to provide range-finding data is therefore, not within the scope of Good Laboratory Practice Guidelines.\nMice were treated by intravaginal administration twice daily at ˜12 hour intervals administered on Days 1 through 4. Mice were treated intraperitoneally three times on Day 1 at ˜4 hour intervals, and twice daily at ˜12 hour intervals administered on days 2 through 4.\nDosing volumes were 0.1 mL/mouse (intravaginal), 0.1 mL/mouse (intraperitoneal), and 20 μL/rabbit. The study lasted 5 days, with day 1 the first day of dose administration.\nThe dose formulations were supplied in pyrogen-free saline."}, "[2]": {"system": "P. aeruginosa (ATCC 27853)", "assay": "Protocol 3 time-dependent antimicrobial activity at one dose level", "assay_type": "cell-based, Pseudomonas aeruginosa"}, "[3]": {"system": "S. aureus (ATCC 6538)", "assay": "Protocol 1 kill curve / MIC, 1 hour at 37° C.", "assay_type": "cell-based, Staphylococcus aureus", "conditions": "10 mM sodium phosphate buffer", "method": "This protocol is used to develop dose-response (kill) curves to calculate the minimal inhibitory concentration of an indolicidin (e.g., L-indolicidin (L-IND)) when formulated in a commercially available phosphate buffered saline (PBS) solution. In addition, for comparative purposes, kill curves are established for the following three commonly available commercial lens-care products containing different preservatives:\nThe stock solutions are diluted in a 2-fold fashion by transferring 1 ml of each stock solution to 1 ml of appropriate diluent in sterile glass tubes (100×13 mm). Twelve additional 2-fold dilutions are made by transferring 1 ml aliquots of each dilution to 1 ml diluent. The diluent for all commercial lens-care products is PBS. […]\nViable counts of the bacteria are performed by 10-fold serial dilutions in sterile PBS and by plating 0.1 ml aliquots on nutrient agar plates. […] The plates are incubated overnight at 37° C. and colonies are counted and recorded. […]\nSurvival is expressed as number of surviving bacteria (CFU/ml) for each dilution of the test article and control solutions. The lowest dose of the test article that results in complete kill of the test organism, compared to the non-exposed control, is determined to be the MIC value. […]"}}, "data": [{"molecule": "CC[C@H](C)[C@H](N)C(=O)N[C@@H](CC(C)C)C(=O)N1CCC[C@H]1C(=O)N[C@@H](Cc1c[nH]c2ccccc12)C(=O)N[C@@H](CCCCN)C(=O)N[C@@H](Cc1c[nH]c2ccccc12)C(=O)N1CCC[C@H]1C(=O)N[C@@H](Cc1c[nH]c2ccccc12)C(=O)N[C@@H](Cc1c[nH]c2ccccc12)C(=O)N1CCC[C@H]1C(=O)N[C@@H](Cc1c[nH]c2ccccc12)C(=O)N[C@@H](CCCNC(=N)N)C(=O)N[C@@H](CCCNC(=N)N)C(N)=O", "note": "[L-indolicidin, H2N-ILPWKWPWWPWRR-CONH2]", "values": [{"measurement": "Tissues from the reproductive tract (histology)", "setting": "[1]; 0.1 mL/mouse at 10, 100 or 1000 μg/mL, BPN-A-amide at 30, 300 or 300 μ/mL", "value": "within normal limits"}, {"measurement": "deaths or clinical signs of toxicity", "setting": "[1]; 10, 100 or 1000 μg/mL, BPN-A-amide 30, 300 or 3000 μg/mL", "value": "No deaths or biologically significant clinical signs of toxicity"}, {"measurement": "log cell reduction", "setting": "[2]; 50 μg/ml, 10 mM sodium phosphate buffer, as early as after 1 minute exposure, initial 2.0×10^6 CFU/ml", "value": "~6", "unit": "log"}, {"measurement": "survival", "setting": "[2]; 50 μg/ml, 10 mM sodium phosphate buffer, exposure time 0 hr", "value": "2.4 × 10^6 CFU/ml"}, {"measurement": "survival", "setting": "[2]; 50 μg/ml, 10 mM sodium phosphate buffer, exposure time 1 hr", "value": "1.6 × 10^6 CFU/ml"}, {"measurement": "survival", "setting": "[2]; 50 μg/ml, 10 mM sodium phosphate buffer, exposure time 2 hr", "value": "1.1 × 10^5 CFU/ml"}, {"measurement": "survival", "setting": "[2]; 50 μg/ml, 10 mM sodium phosphate buffer, exposure time 4 hr", "value": 0, "unit": "CFU/ml"}, {"measurement": "survival", "setting": "[2]; 50 μg/ml, 10 mM sodium phosphate buffer, exposure time 6 hr", "value": 0, "unit": "CFU/ml"}, {"measurement": "survival", "setting": "[2]; 50 μg/ml, 10 mM sodium phosphate buffer, exposure time 12 hr", "value": 0, "unit": "CFU/ml"}, {"measurement": "survival", "setting": "[2]; 50 μg/ml, 10 mM sodium phosphate buffer, up to 15 minutes", "value": 100, "unit": "%"}, {"measurement": "killing", "setting": "[2]; 50 μg/ml, 100 mM sodium phosphate buffer, exposures of between 15 and 60 min", "value": "virtually complete killing"}, {"measurement": "survival", "setting": "[2]; 50 μ/ml, 10 mM sodium phosphate buffer, after 4 hours exposure", "value": "no detectable survival"}, {"measurement": "log kill", "setting": "[3]; 6.25 μg/ml", "value": "~3", "unit": "log"}, {"measurement": "survival", "setting": "[3]; 100, 50, 25 and 12.5 μg/ml, 4.1×10^5 CFU/ml", "value": "no detectable survival"}]}]}
